Read-outs that look alike come from different tables or passages of the source.
Columns and labels:
Format in all cases: cell-based
[1] = system: P. falciparum 3D7-A10; assay: Blood-stage dose-response assay (SYBR Green I, 72 hr), 3D7 / 3D7-A10 parent; details: Plasmodium falciparum
Description: (§1) The 3D7-A10 clone has been used in previous in vitro drug selection and sequencing efforts ([Cowell et al., 2018]). Dd2 parasites were obtained from T. Wellems (NIAID, NIH). Dd2-B2 is a genetically homogeneous line that was cloned from Dd2 by limiting dilution in the Fidock lab. Parasite strains were cultured in 3-5% human O+ hematocrit in RPMI 1640 (Life Technologies) supplemented with 28 mM NaHCO3, 25 mM HEPES, and hypoxanthine ([…]). Depending on the parasite line, the media either contained gentamycin (25 μg/mL), or no antibiotic and was additionally supplemented with 0.5% AlbuMAX II (Life Technologies) and/or O+ human serum (heat inactivated and pooled). Blood and serum products were obtained from Interstate Blood Bank. Cultures were maintained at 37°C in 1.1% O2, 4% CO2, and 95% N2. Parasite populations were synchronized by 5% sorbitol treatment ([Lambros and Vanderberg, 1979]).
(§2) For in vitro–selected lines, drug susceptibility was measured by SYBR Green I–based assay ([Johnson et al., 2007]; [Smilkstein et al., 2004]). Ring-stage parasites were cultured for 72 hr at 1% hematocrit and 1% starting parasitemia in 384-well black clear-bottom plates containing test compounds plated in triplicate in 12-point serial dilutions. Lysis buffer (0.16% w/v saponin, 1.6% Triton X-100, 5 mM EDTA, and 20 mM Tris-HCl, pH 7.4) with SYBR Green I fluorescent dye (Invitrogen) was added, and fluorescence readings were taken (excitation at 494 nm, emission at 530 nm). Alternatively, Dd2-B2 ring-stage cultures at 0.3% parasitemia and 1% hematocrit were exposed for 72 hr to a range of ten drug concentrations that were 2-fold serially diluted in duplicates along with drug-free controls. Parasite survival was assessed by flow cytometry on an Accuri C6 (BD Biosciences) using SYBR Green and MitoTracker Deep Red FM (Life Technologies) as nucleic acid stain and vital dyes respectively. EC50 values were calculated using a nonlinear regression curve fit in Prism Software version 8 (GraphPad).

[2] = system: P. falciparum Dd2:A597V (CRISPR edited PfAcAS); assay: Blood-stage dose-response assay, CRISPR-edited Dd2:A597V line; details: Plasmodium falciparum, mean ± SD, n bioreplicates
Description: as §2
(§3) Mutant PfAcAS-A597V and PfAcAS-T648M parasites were generated using CRISPR/Cas9. The guide RNAs for PfAcAS-A597V (5′-[…]-3′; 5′-[…]-3′) and for PfAcAS-T648M (5′-[…]-3′) were designed using Benchling (https://benchling.com/) to targeting sites in PfAcAS that were 6-14 bp upstream of the A597 codon and 6 bp downstream of the T648 codon respectively. Complementary oligos encoding the gRNA sequences (5′- tatt[…]-3’ / 5’-aaac[…]-3’; 5’-tatt[…]-3’ / 5’-aaac[…]-3’ and 5’- tattg[…]-3’ / 5’-aaac[…]c-3’ ) were phosphorylated using T4 polynucleotide kinase and annealed (95°C for 5 min, then step down of 5°C/min to 25°C) prior to ligation into the BbsI-digested pDC2-coCas9-U6.2-hDHFR plasmid ([Lim et al., 2016]). The donor template for PfAcAS-A597V was synthesized (ThermoFisher) as a 700 bp Genestring fragment spanning position 1468 to 2168 of the PfAcAS gene, and the donor for PfAcAS-T648M synthesized as a 829 bp fragment spanning position 1468 to 2297 and inserted into the AatII/EcoRI sites of the pDC2-coCas9-gRNA-hDHFR plasmid by Gibson assembly. Ring-stage parasites (Dd2) at 5% parasitemia were transfected by electroporation (BioRad Gene Pulser II at 0.310 kV and 950 μF) with 50 μg of each plasmid (plasmid 1: pDC2-coCas9-AcAS-A597V-gRNA1-hDHFR, plasmid 2: pDC2-coCas9-gRNA2-hDHFR, or plasmid 3: pDC2-coCas9-AcAS-T648M-gRNA1-hDHFR), and parasites selected for 10 days with 2.5 nM WR99210 (Jacobus Pharmaceuticals), followed by removal of drug pressure. After confirmation of editing in the bulk culture, clones were isolated by serial limiting dilution and confirmed by Sanger sequencing after PCR amplification from genomic DNA using forward primer 5′-[…]-3′ and reverse primer 5′-[…]-3′ (for A597V) and 5′-[…]-3′ (for T648M).

[3] = system: P. falciparum Dd2:T648M (CRISPR edited PfAcAS); assay: Blood-stage dose-response assay, CRISPR-edited Dd2:T648M line; details: Plasmodium falciparum, mean ± SD, n bioreplicates
Description: as §2, §3

[4] = system: P. falciparum Dd2-B2; assay: Blood-stage dose-response assay (72 hr), Dd2 / Dd2-B2 parent; details: Plasmodium falciparum
Description: as §1, §2

[5] = mean ± SD, n bioreplicates, read-out: 3D7-A10 parent EC50 ± SD
[6] = DD2, read-out: Dd2-B2 parent EC50 ± SD (nM)

| Compound | EC50 [1, 5] | EC50 [2] | EC50 [3] | EC50 [4, 6] | EC50 ([1]; blood-stage parasites in vitro, read-out: P. falciparum 3D7 half-maximal effective concentration [EC50]) | EC50 ([4]; DD2, read-out: P. falciparum Dd2 EC50) | EC50 ([4]; DD2, read-out: mean EC50 (nM) ± SD (n)) |
| --- | --- | --- | --- | --- | --- | --- | --- |
| O=C1C(O)=C([C@H]2CC[C@H](c3ccc(Cl)cc3)CC2)C(=O)c2ccccc21 [Atovaquone, reference compound] | 0.42 ± 0.05 nM | 0.55 ± 0.35 nM | 0.69 ± 0.38 nM | 0.3 ± 0.13 nM |  |  |  |
| CCN(CC)S(=O)(=O)c1ccc(Cl)c(C(=O)Nc2ccc3nc(C)sc3c2)c1 [MMV019721] | 400 ± 58 nM | 6200 nM | 8200 nM | 400 ± 72 nM | 460 ± 100 nM | 400 ± 72 nM | 400 ± 72 nM |
| O=C(NNC(=O)c1csnn1)c1ccc(Cl)cc1 [MMV084978] | 110 ± 28 nM | 43000 nM | 12000 nM | 150 ± 36 nM |  |  |  |

— publication PMC8878317, “Chemogenomics identifies acetyl-coenzyme A synthetase as a target for malaria treatment and prevention” (Cell Chemical Biology, 2022)
